Tests used:
[1] = Cytotoxicity against human MNT1 cells
Tyrosinase [2] = molecular target: T1, Tyrosinase (Homo sapiens, UniProt P14679); test: Inhibition of recombinant human tyrosinase expressed in baculovirus infected Sf9 cells assessed as diphenolase activity using L-DOPA as substrate by UV-vis spectrophotometry
T1 sequence (P14679 whole entry): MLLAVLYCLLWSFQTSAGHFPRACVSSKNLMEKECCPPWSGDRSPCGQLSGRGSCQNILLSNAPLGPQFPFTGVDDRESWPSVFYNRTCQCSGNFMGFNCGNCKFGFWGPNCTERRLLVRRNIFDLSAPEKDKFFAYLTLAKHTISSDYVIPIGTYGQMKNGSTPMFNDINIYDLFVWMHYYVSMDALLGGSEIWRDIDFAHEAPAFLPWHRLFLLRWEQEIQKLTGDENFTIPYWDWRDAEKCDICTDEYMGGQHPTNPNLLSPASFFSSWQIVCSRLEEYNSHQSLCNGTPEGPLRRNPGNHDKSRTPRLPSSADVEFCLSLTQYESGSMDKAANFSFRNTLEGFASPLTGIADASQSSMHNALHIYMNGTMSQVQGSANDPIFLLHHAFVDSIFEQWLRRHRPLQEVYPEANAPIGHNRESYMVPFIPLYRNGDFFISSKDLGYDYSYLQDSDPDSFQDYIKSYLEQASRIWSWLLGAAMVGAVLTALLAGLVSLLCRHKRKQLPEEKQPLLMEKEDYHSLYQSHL

[3] = Inhibition of mushroom TyM1 preincubated for 5 mins followed by addition of L-DOPA as substrate measured for 5 mins by spectroscopic method; set-up: species or system Agaricus bisporus
Tyrosinase [4] = molecular target: T1, Tyrosinase; test: Inhibition of tyrosinase in human MNT1 cells assessed as suppression of melanin biosynthesis measured after 96 hrs; type: cell-based
Tyrosinase [5] = molecular target: T1, Tyrosinase; test: Inhibition of tyrosinase in human MNT1 cell lysate pretreated prior to addition of L-DOPA as substrate measured after 3 hrs; type: cell-based
[6] = molecular target: T2, Tyrosinase (Homo sapiens) (UniProt P14679); conditions: Sf9
T2 sequence (whole entry): T1 sequence (P14679 whole entry)

Structure (SMILES) | IC50 [1] | Ki (Tyrosinase [2]) | IC50 [3] | IC50 (Tyrosinase [4]) | IC50 (Tyrosinase [5]) | Kic [6]
O=C1/C(=C/c2ccc(=O)n(O)c2)Oc2cc(O)ccc21 | > 500 µM | 0.35 µM | 1.5 µM | 85.3 µM | 16.6 µM | 
O=C1/C(=C/c2ccc(=O)n(O)c2)Oc2cc(O)cc(O)c21 | > 500 µM |  |  | 119 µM | 34 µM | 1.2 µM
O=C1/C(=C/c2ccc(=O)n(O)c2)Oc2cccc(O)c21 | 80 µM |  |  | 120 µM | 30 µM | 1.02 µM
O=C1/C(=C/c2ccc(O)cc2O)Oc2cccc(O)c21 |  |  | 9 µM |  |  | 
O=C1/C(=C/c2ccc(O)cc2O)Oc2cc(O)cc(O)c21 |  |  | 300 µM |  |  | 
O=C1/C(=C/c2ccc(O)cc2O)Oc2cc(O)ccc21 |  |  | > 1000 µM |  |  | 
O=c1cc(CO)occ1O [KOJIC ACID] | > 80000 µM |  |  |  |  | 
